How the values were obtained:
PI3K delta = PI3K delta (Homo sapiens (Human), UniProt O00329); test: Enzymatic PI3K delta isoform inhibition (lipid kinase, Kinase-Glo luminescence); format: biochemical; conditions: enzymatic assay
PI3K alpha = PI3K alpha (Homo sapiens (Human), UniProt P42336); test: Enzymatic PI3K alpha isoform inhibition (lipid kinase, Kinase-Glo luminescence); format: biochemical; conditions: enzymatic assay
PI3K alpha, sequence (P42336 other isoform, or with tags, fused parts or gaps): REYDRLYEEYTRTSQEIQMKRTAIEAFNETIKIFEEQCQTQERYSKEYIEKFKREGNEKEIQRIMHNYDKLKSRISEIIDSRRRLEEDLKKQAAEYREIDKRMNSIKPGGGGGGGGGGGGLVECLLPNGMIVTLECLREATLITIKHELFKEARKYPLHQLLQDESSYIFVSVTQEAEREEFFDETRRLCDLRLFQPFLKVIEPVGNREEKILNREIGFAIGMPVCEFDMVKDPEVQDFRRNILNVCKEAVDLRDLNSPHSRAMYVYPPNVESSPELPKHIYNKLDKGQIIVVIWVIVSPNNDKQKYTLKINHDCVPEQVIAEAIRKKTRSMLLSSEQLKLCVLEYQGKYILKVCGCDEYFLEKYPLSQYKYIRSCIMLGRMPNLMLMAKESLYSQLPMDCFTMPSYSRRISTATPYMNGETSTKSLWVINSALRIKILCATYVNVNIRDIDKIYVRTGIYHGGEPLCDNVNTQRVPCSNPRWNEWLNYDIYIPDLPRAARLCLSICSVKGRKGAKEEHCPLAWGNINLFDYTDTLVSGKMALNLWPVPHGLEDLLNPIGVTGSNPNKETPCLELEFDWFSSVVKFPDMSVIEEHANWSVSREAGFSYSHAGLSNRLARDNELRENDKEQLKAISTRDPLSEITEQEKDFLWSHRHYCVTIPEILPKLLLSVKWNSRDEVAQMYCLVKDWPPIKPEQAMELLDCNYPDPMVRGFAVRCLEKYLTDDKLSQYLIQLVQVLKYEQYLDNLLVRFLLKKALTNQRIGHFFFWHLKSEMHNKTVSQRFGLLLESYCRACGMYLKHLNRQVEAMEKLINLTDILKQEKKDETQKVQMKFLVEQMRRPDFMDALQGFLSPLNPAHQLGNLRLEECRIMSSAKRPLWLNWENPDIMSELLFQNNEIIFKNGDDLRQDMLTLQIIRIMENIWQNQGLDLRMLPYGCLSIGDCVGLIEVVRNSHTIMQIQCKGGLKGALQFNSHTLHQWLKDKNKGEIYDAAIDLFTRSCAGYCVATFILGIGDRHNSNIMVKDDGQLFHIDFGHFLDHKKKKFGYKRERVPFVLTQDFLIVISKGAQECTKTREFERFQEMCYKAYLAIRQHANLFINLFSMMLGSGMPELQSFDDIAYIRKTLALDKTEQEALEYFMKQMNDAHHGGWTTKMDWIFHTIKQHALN

PI3K delta, sequence (O00329 other isoform, or with tags, fused parts or gaps linker GGGGGG): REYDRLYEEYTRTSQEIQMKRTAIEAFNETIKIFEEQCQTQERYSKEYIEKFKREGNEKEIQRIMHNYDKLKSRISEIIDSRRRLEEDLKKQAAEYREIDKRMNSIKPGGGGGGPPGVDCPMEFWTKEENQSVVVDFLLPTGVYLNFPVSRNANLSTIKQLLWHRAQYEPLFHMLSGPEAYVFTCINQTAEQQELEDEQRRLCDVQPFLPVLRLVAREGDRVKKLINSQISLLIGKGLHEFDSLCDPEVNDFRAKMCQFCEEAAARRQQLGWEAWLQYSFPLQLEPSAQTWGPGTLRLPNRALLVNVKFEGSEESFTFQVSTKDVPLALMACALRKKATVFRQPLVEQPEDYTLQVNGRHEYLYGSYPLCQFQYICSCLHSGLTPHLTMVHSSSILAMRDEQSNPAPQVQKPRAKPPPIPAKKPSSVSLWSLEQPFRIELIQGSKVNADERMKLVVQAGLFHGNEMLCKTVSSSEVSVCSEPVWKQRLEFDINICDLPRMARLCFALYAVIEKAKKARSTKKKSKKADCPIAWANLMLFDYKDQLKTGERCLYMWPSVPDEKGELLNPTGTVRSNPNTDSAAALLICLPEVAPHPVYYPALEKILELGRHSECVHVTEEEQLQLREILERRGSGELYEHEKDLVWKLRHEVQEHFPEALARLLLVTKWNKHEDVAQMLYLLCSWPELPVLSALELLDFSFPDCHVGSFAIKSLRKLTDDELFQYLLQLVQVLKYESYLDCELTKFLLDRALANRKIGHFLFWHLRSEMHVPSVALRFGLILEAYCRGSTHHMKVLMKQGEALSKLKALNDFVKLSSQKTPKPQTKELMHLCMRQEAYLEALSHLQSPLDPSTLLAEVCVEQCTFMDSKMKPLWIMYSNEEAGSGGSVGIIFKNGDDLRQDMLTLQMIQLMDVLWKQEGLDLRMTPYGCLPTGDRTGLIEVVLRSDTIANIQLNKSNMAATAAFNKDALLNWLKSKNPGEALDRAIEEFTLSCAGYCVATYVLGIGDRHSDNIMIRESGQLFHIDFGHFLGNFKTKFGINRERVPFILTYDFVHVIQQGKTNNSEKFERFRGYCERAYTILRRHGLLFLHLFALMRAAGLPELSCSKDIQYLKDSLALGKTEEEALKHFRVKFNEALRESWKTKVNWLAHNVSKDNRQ

IC50 (PI3K delta)	IC50 (PI3K alpha)	SMILES
40 nM	3410 nM	COc1ncc(N2CCc3ncnc(O[C@H]4CCN(C(=O)CC5CCOCC5)C4)c3C2)cc1C#N [Example 27, 2-Methoxy-5-{4-[(S)-1-(2-tetrahydro-pyran-4-yl-acetyl)-pyrrolidin-3-yloxy]-7,8-dihydro-5H-pyrido[4,3-d]pyrimidin-6-yl}-nicotinonitrile]
11 nM	2580 nM	COc1ncc(N2CCc3ncnc(O[C@H]4CCN(C(=O)C5CCOC(C)(C)C5)C4)c3C2)cc1C#N (stereo partly drawn) [Example 29, 5-{4-[(S)-1-(2,2-Dimethyl-tetrahydro-pyran-4-carbonyl)-pyrrolidin-3-yloxy]-7,8-dihydro-5H-pyrido[4,3-d]pyrimidin-6-yl}-2-methoxy-nicotinonitrile]
40 nM	2830 nM	COc1ncc(N2CCc3ncnc(O[C@H]4CCN(C(=O)c5ncoc5C)C4)c3C2)cc1C [Example 30, {(S)-3-[6-(6-Methoxy-5-methyl-pyridin-3-yl)-5,6,7,8-tetrahydro-pyrido[4,3-d]pyrimidin-4-yloxy]-pyrrolidin-1-yl}-(5-methyl-oxazol-4-yl)-methanone]
21 nM	3020 nM	COc1ncc(N2CCc3ncnc(O[C@H]4CCN(C(=O)c5cnoc5C)C4)c3C2)cc1C [Example 31, {(S)-3-[6-(6-Methoxy-5-methyl-pyridin-3-yl)-5,6,7,8-tetrahydro-pyrido[4,3-d]pyrimidin-4-yloxy]-pyrrolidin-1-yl}-(5-methyl-isoxazol-4-yl)-methanone]
23 nM	2040 nM	COc1ncc(N2CCc3ncnc(O[C@H]4CCN(C(=O)c5conc5C)C4)c3C2)cc1C [Example 32, {(S)-3-[6-(6-Methoxy-5-methyl-pyridin-3-yl)-5,6,7,8-tetrahydro-pyrido[4,3-d]pyrimidin-4-yloxy]-pyrrolidin-1-yl}-(3-methyl-isoxazol-4-yl)-methanone]
18 nM	1970 nM	COc1ncc(N2CCc3ncnc(O[C@H]4CCN(C(=O)c5ccon5)C4)c3C2)cc1C [Example 33, Isoxazol-3-yl-{(S)-3-[6-(6-Methoxy-5-methyl-pyridin-3-yl)-5,6,7,8-tetrahydro-pyrido[4,3-d]pyrimidin-4-yloxy]-pyrrolidin-1-yl}-methanone]
14 nM	1650 nM	COc1ncc(N2CCc3ncnc(O[C@H]4CCN(C(=O)c5ccno5)C4)c3C2)cc1C [Example 34, Isoxazol-5-yl-{(S)-3-[6-(6-Methoxy-5-methyl-pyridin-3-yl)-5,6,7,8-tetrahydro-pyrido[4,3-d]pyrimidin-4-yloxy]-pyrrolidin-1-yl}-methanone]
49 nM	4230 nM	COc1ncc(N2CCc3ncnc(O[C@H]4CCN(C(=O)c5cscn5)C4)c3C2)cc1C#N [Example 35, 2-Methoxy-5-{4-[(S)-1-(thiazole-4-carbonyl)-pyrrolidin-3-yloxy]-7,8-dihydro-5H-pyrido[4,3-d]pyrimidin-6-yl}-nicotinonitrile]
25 nM	4100 nM	COc1ncc(N2CCc3ncnc(O[C@H]4CCN(C(=O)c5cnn(C)c5)C4)c3C2)cc1C#N [Example 36, 2-Methoxy-5-{4-[(S)-1-(1-methyl-1H-pyrazole-4-carbonyl)-pyrrolidin-3-yloxy]-7,8-dihydro-5H-pyrido[4,3-d]pyrimidin-6-yl}-nicotinonitrile]
31 nM	7020 nM	COc1ncc(N2CCc3ncnc(O[C@H]4CCN(C(=O)c5ccn(C)n5)C4)c3C2)cc1C#N [Example 37, 2-Methoxy-5-{4-[(S)-1-(1-methyl-1H-pyrazole-3-carbonyl)-pyrrolidin-3-yloxy]-7,8-dihydro-5H-pyrido[4,3-d]pyrimidin-6-yl}-nicotinonitrile]
16 nM	3310 nM	COc1ncc(N2CCc3ncnc(O[C@H]4CCN(C(=O)C5CCOC(C)(C)C5)C4)c3C2)cc1C (stereo partly drawn) [Example 38, (2,2-Dimethyl-tetrahydro-pyran-4yl)-{(S)-3-[6-(6-Methoxy-5-methyl-pyridin-3-yl)-5,6,7,8-tetrahydro-pyrido[4,3-d]pyrimidin-4-yloxy]-pyrrolidin-1-yl}-methanone]
9 nM	434 nM	COc1ncc(N2CCc3ncnc(O[C@H]4CCN(C(=O)C5CCS(=O)(=O)CC5)C4)c3C2)cc1C(F)(F)F [Example 39, (1,1-Dioxo-hexahydro-1lambda*6*-thiopyran-4-yl)-{(S)-3-[6-(6-methoxy-5-trifluoromethyl-pyridin-3-yl)-5,6,7,8-tetrahydro-pyrido[4,3-d]pyrimidin-4-yloxy]-pyrrolidin-1-yl}-methanone]
6 nM	260 nM	COc1ncc(N2CCc3ncnc(O[C@H]4CCN(C(=O)c5oc(C)nc5C)C4)c3C2)cc1C(F)(F)F [Example 40, (2,4-Dimethyl-oxazol-5-yl)-{(S)-3-[6-(6-methoxy-5-trifluoromethyl-pyridin-3-yl)-5,6,7,8-tetrahydro-pyrido[4,3-d]pyrimidin-4-yloxy]-pyrrolidin-1-yl}-methanone]
14 nM	515 nM	COc1ncc(N2CCc3ncnc(O[C@H]4CCN(C(=O)c5cncs5)C4)c3C2)cc1C(F)(F)F [Example 41, {(S)-3-[6-(6-Methoxy-5-trifluoromethyl-pyridin-3-yl)-5,6,7,8-tetrahydro-pyrido[4,3-d]pyrimidin-4-yloxy]-pyrrolidin-1-yl}-thiazol-5-yl-methanone]
13 nM	863 nM	COc1ncc(N2CCc3ncnc(O[C@H]4CCN(C(=O)c5ccnn5C)C4)c3C2)cc1C(F)(F)F [Example 42, {(S)-3-[6-(6-Methoxy-5-trifluoromethyl-pyridin-3-yl)-5,6,7,8-tetrahydro-pyrido[4,3-d]pyrimidin-4-yloxy]-pyrrolidin-1-yl}-(2-methyl-2H-pyrazol-3-yl)-methanone]
16 nM	728 nM	COc1ncc(N2CCc3ncnc(O[C@H]4CCN(C(=O)C5CNC(=O)C5)C4)c3C2)cc1C(F)(F)F (stereo partly drawn) [Example 43, 4-{(S)-3-[6-(6-Methoxy-5-trifluoromethyl-pyridin-3-yl)-5,6,7,8-tetrahydro-pyrido[4,3-d]pyrimidin-4-yloxy]-pyrrolidine-1-carbonyl}-pyrrolidin-2-one]
16 nM	1190 nM	COc1ncc(N2CCc3ncnc(O[C@H]4CCN(C(=O)c5cccnc5)C4)c3C2)cc1C(F)(F)F [Example 44, {(S)-3-[6-(6-Methoxy-5-trifluoromethyl-pyridin-3-yl)-5,6,7,8-tetrahydro-pyrido[4,3-d]pyrimidin-4-yloxy]-pyrrolidin-1-yl}-pyridin-3-yl-methanone]
18 nM	860 nM	COc1ncc(N2CCc3ncnc(O[C@H]4CCN(C(=O)c5c[nH]cn5)C4)c3C2)cc1C(F)(F)F [Example 45, (1H-Imidazol-4-yl)-{(S)-3-[6-(6-methoxy-5-trifluoromethyl-pyridin-3-yl)-5,6,7,8-tetrahydro-pyrido[4,3-d]pyrimidin-4-yloxy]-pyrrolidin-1-yl}-methanone]
27 nM	803 nM	COc1ncc(N2CCc3ncnc(O[C@H]4CCN(C(=O)C5CCC(=O)N5)C4)c3C2)cc1C(F)(F)F (stereo partly drawn) [Example 46, 5-{(S)-3-[6-(6-Methoxy-5-trifluoromethyl-pyridin-3-yl)-5,6,7,8-tetrahydro-pyrido[4,3-d]pyrimidin-4-yloxy]-pyrrolidine-1-carbonyl}-pyrrolidin-2-one]
25 nM	656 nM	COc1ncc(N2CCc3ncnc(O[C@H]4CCN(C(=O)c5ccncc5)C4)c3C2)cc1C(F)(F)F [Example 47, {(S)-3-[6-(6-Methoxy-5-trifluoromethyl-pyridin-3-yl)-5,6,7,8-tetrahydro-pyrido[4,3-d]pyrimidin-4-yloxy]-pyrrolidin-1-yl}-pyridin-4-yl-methanone]
29 nM	518 nM	COc1ncc(N2CCc3ncnc(O[C@H]4CCN(C(=O)c5cn(C)nc5C)C4)c3C2)cc1C(F)(F)F [Example 48, (1,3-Dimethyl-1H-pyrazol-4-yl)-{(S)-3-[6-(6-methoxy-5-trifluoromethyl-pyridin-3-yl)-5,6,7,8-tetrahydro-pyrido[4,3-d]pyrimidin-4-yloxy]-pyrrolidin-1-yl}-methanone]
34 nM	388 nM	COc1ncc(N2CCc3ncnc(O[C@H]4CCN(C(=O)c5cn[nH]c5)C4)c3C2)cc1C(F)(F)F [Example 49, {(S)-3-[6-(6-Methoxy-5-trifluoromethyl-pyridin-3-yl)-5,6,7,8-tetrahydro-pyrido[4,3-d]pyrimidin-4-yloxy]-pyrrolidin-1-yl}-(1H-pyrazol-4-yl)-methanone]
44 nM	912 nM	COc1ncc(N2CCc3ncnc(O[C@H]4CCN(C(=O)c5nnc(C)o5)C4)c3C2)cc1C(F)(F)F [Example 51, {(S)-3-[6-(6-Methoxy-5-trifluoromethyl-pyridin-3-yl)-5,6,7,8-tetrahydro-pyrido[4,3-d]pyrimidin-4-yloxy]-pyrrolidin-1-yl}-(5-methyl-[1,3,4]oxadiazol-2-yl)-methanone]
46 nM	1020 nM	COc1ncc(N2CCc3ncnc(O[C@H]4CCN(C(=O)c5cnccn5)C4)c3C2)cc1C(F)(F)F [Example 52, {(S)-3-[6-(6-Methoxy-5-trifluoromethyl-pyridin-3-yl)-5,6,7,8-tetrahydro-pyrido[4,3-d]pyrimidin-4-yloxy]-pyrrolidin-1-yl}-pyrazin-2-yl-methanone]
6 nM	504 nM	COc1ncc(N2CCc3ncnc(O[C@H]4CCN(C(=O)c5cn(C)cn5)C4)c3C2)cc1C(F)(F)F [Example 53, {(S)-3-[6-(6-Methoxy-5-trifluoromethyl-pyridin-3-yl)-5,6,7,8-tetrahydro-pyrido[4,3-d]pyrimidin-4-yloxy]-pyrrolidin-1-yl}-(1-methyl-1H-imidazol-4-yl)-methanone]
5 nM	384 nM	COc1ncc(N2CCc3ncnc(O[C@H]4CCN(C(=O)c5cnn(C)c5)C4)c3C2)cc1C(F)(F)F [Example 54, {(S)-3-[6-(6-Methoxy-5-trifluoromethyl-pyridin-3-yl)-5,6,7,8-tetrahydro-pyrido[4,3-d]pyrimidin-4-yloxy]-pyrrolidin-1-yl}-(1-methyl-1H-pyrazol-4-yl)-methanone]
